Test results: EP4691473A1, “PLATYCLADUS ORIENTALIS EXTRACT, PREPARATION METHOD THEREFOR AND USE THEREOF” (Beijing Academy of TCM Beauty Supplements Co., Ltd., priority 2023, dated 2024)

Columns and labels:
[1] = target: 5α-reductase (Mus musculus, UniProt Q68FF9); experiment: 5α-Reductase Inhibition Test (decrease in absorbance at 340 nm, NADPH/testosterone); assay type: biochemical; details: for A: absorbance decrease at 340 nm
Method: • (1) Test drug: Sample of Example 52 • (2) Positive control drug: Finasteride, a product of Merck Sharp & Dohme Limited; Appearance: Film-coated tablets, white after removal of the coating; Specification: 5 mg/tablet; Batch number: 0022050. Storage conditions: light-shielded, airtight, and stored at room temperature. • (3) Drug preparation: The sample of Example 52 was tested at 10 concentrations: 35 mg/mL (solute: the sample of Example 52, solvent: 20% aqueous ethanol solution) was adopted as the initial concentration, and nine 2.5-fold gradient dilutions were made by using 20% aqueous ethanol solution; and five 2-fold gradient dilutions of the positive control finasteride were made by using anhydrous ethanol. • (4) Reagents: Reduced coenzyme II (NADPH), a product of Sigma, Catalog number N7505, Batch number 041939; testosterone (T), a product of Merck, Catalog number T-037; Batch number FE03112002; Tris buffer: Shanghai Yuanye Biotechnology Co., Ltd., Batch number J17HR10516A. • (5) Test instrument: ZDN microplate reader, a product of BioTek.
Mouse liver was obtained by dissection, and was added into a Tris buffer at a ratio of 1:5 for homogenization at 0°C. The homogenized liver was centrifuged at 10000g for 15 minutes, the supernatant was centrifuged at 55000g for another hour, and then the supernatant was placed at 4°C for later use. Reagents and samples were added according to the reaction system. Sample of Example 52 and finasteride sample at each dilution were added 4 times. After incubation at 37°C for 60 minutes, the decrease in absorbance ΔA at 340nm was measured. Inhibition rate (%) = (blank ΔA−sample ΔA)/(blank ΔA) × 100 [formula]
The 5α-reductase reaction system is shown in Table 16: Table 16 Reagent amount for the reaction system (µL)

[2] = system: Malassezia; experiment: Malassezia antibacterial test (microbroth method, OD600 after 72 hours); assay type: cell-based; details: Ketoconazole 4µg/mL, read-out: Malassezia inhibition rate, positive control
Method: A culture medium and Malassezia were mixed thoroughly by shaking until no sediment was present at the bottom. A sterile syringe was used to pipette 200-800 µL of the bacterial suspension into fresh culture medium and incubate at 30°C in a biochemical incubator. After 2-3 days of incubation, the sample was subcultured.
A sterile malt extract culture medium was transferred into a sterile 50mL centrifuge tube. The sterile malt extract culture medium was centrifuged at 25°C and 3500 rpm for 10 minutes. The supernatant was transferred to another sterile 50mL centrifuge tube for later use.
Each sample was diluted with fresh culture medium to a concentration of 50 mg/mL, 40 mg/mL, 30 mg/mL, 20 mg/mL, 10 mg/mL, or 5 mg/mL.
The culture medium and Malassezia were mixed thoroughly by shaking and transferred to a sterile 50mL centrifuge tube. The mixture was centrifuged at 25°C and 1000 rpm for 30 seconds. The supernatant was transferred to a sterile 50 mL centrifuge tube and centrifuge at 25°C and 3500 rpm for 10 minutes.
A microplate reader was set at a wavelength of 600 nm. […] The OD600 value of the bacterial suspension was detected at 600 nm. […]
The required volume of bacterial suspension was calculated. […]
The sterile 96-well culture plate was placed in a 30°C incubator. After 72 hours of incubation, the absorbance at 600nm was recorded. […]

5α-reductase, sequence (Q68FF9 whole entry): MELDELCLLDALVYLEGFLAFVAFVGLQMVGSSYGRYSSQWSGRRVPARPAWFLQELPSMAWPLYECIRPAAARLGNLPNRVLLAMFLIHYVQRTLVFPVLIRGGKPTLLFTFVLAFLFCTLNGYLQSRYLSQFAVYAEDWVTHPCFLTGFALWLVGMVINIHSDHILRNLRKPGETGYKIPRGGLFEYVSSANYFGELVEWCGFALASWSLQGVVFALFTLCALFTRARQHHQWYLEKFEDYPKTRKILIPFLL

Row | SMILES | inhibition at 0.003 µg/mL ([1]; Finasteride 0.003 µg/mL, read-out: Inhibition rate) [%] | inhibition at 0.006 µg/mL ([1]; Finasteride 0.006 µg/mL, read-out: Inhibition rate) [%] | inhibition at 0.012 µg/mL ([1]; Finasteride 0.012 µg/mL, read-out: Inhibition rate) [%] | inhibition at 0.025 µg/mL ([1]; Finasteride 0.025 µg/mL, read-out: Inhibition rate) [%] | inhibition at 0.05 µg/mL ([1]; Finasteride 0.050 µg/mL, read-out: Inhibition rate) [%] | A ([1]; Finasteride 0.003 µg/mL) | A ([1]; Finasteride 0.012 µg/mL) | A ([1]; Finasteride 0.025 µg/mL) | A ([1]; Finasteride 0.050 µg/mL) | inhibition at 4 µg/mL [2] [%]
1 | CC(C)(C)NC(=O)[C@H]1CC[C@H]2[C@@H]3CC[C@H]4NC(=O)C=C[C@]4(C)[C@H]3CC[C@]12C [Finasteride] | 6.12 | 15.4 | 26.3 | 39.2 | 63.1 | 0.10 | 0.08 | 0.07 | 0.04 | 
2 | CC(=O)N1CCN(c2ccc(OCC3COC(Cn4ccnc4)(c4ccc(Cl)cc4Cl)O3)cc2)CC1 (stereo not shown) [Ketoconazole] |  |  |  |  |  |  |  |  |  | 95 ± 3.59
